Experimental data from patent US20070010548A1, “Compounds having inhibitive activity of phosphatidylinositol 3-kinase and methods of use thereof” (ZENTARIS GmbH, priority 2003, published 2007).
Like-named read-outs stand apart in the source and are kept apart here.

Assays:
[1] = system: phospho-Akt in MDA-MB-468 cells; experiment: Phospho-Akt levels in MDA-MB-468 cells (PathScan phospho-Akt ELISA / immunoblotting); assay type: cell-based, human; settings: 50 μM, 4 hours, serum-starved MDA-MB-468 cells; DMSO alone = 100%
Method: Because phosphorylation and activation of PKB/Akt is dependent on PI 3-K activity, PI 3-K inhibitors decrease the cellular levels of phospho-Akt. MDA-MB-468 cells show constitutively high levels of phospho-Akt as a result of abnormal activation of PI 3-K signaling.
The effect of treatment with PI 3-K inhibitors on phospho-Akt levels in these cells was determined as follows. Cells were plated into 6-well cell culture dishes at a density of 5×10^5 cells per well in RMPI media containing 10% fetal calf serum and 2 mM L-glutamine. Twenty-four hours later, media was removed and replaced with serum-free RMPI containing 2 mM L-glutamine. The cells were serum-starved overnight.
Compounds were diluted into serum-free media to a final concentration of 50 μM and added to the cells. The cells were incubated in the presence of PI 3-K inhibitors for 4 hours. Phospho-Akt levels were determined using one of the following methods.
To determine phospho-Akt levels using immunoblotting, cells were washed twice with PBS and lysed in ice-cold lysis buffer (1% Triton X-100, 50 mM Hepes pH 7.4, 150 mM NaCl, 1.5mM MgCl2, 1 mM EGTA, 100 mM NaF, 10 mM Sodium Pyrophosphate, 1 mM Na(subscript: 3)VO(subscript: 4), 10% glycerol, InmM phenylmethylsulfonyl fluoride, and 10 ug/ml aprotifin). Total protein concentration was determined using a BCA assay. 30ug of total cell lysate protein was diluted into Laemmli sample buffer and loaded onto a 10% acrylamide gel, subjected to SDS-PAGE, and transferred to a PVDF membrane. The membrane was blocked with 5% bovine serum albumin and then incubated at 4° C. overnight with antibody. The membrane was washed in TBS-T (10 mM Tris-HCl pH 7.4, 150 mM NaCl, and 0.1% Tween-20) and incubated with HRP-conjugated antibody (diluted in 5% milk in TBS-T) at room temperature for 1 h. The membrane was washed extensively and the proteins were visualized by chemiluminscent detection. The compounds effects on phospho-Akt levels were observed as relative differences in the amount of phospho-Akt detected by immunoblotting.
Effects on cellular levels of phospho-Akt following treatment with PI 3-K inhibitors were quantified using the PathScan phospho-Akt ELISA (Cell Signaling Technologies)., a sandwich ELISA for detection of phospho-Akt. The kit was used according to the manufacturer protocol. Absorbance at 450 nm was determined for each sample and used directly as equivalent of phospho-Akt levels.
Percent decreases in phospho-Akt levels were determined by normalizing relative to blank samples (0%/O) and control samples treated with DMSO alone (1 00%).

[2] = system: tumor cells altered in PI 3-K/PTEN; experiment: Cellular growth inhibition assays on tumor cells altered in PI 3-K/PTEN; assay type: cell-based; settings: for IC50: approximate, read-out: Approx. mIC50 in cellular assays
Method: (§1) The ovarian cancer cell line SKOV3 is not altered in PI 3-K signaling and should be less sensitive to the anti-proliferative effects produced by treatment with PI 3-K inhibitors, while the OVCAR3 cell line, which is altered in PI 3-K signaling, via amplification of PI 3-K activity, should be sensitive. SKOV3 cells were seeded in 96-well cell culture plates (Greiner) at a density of 20,000 cells per well in McCoys 5A media (GibcoBRL) with 10% fetal calf serum and 20 mM L-glutamine. OVCAR3 cells were seeded at a density of 15,000 cells per well in RPMI 1640 media (GibcoBRL) containing 20 mM 1-glutamine, 0.01 ng/ml bovine insulin, 10 mM Hepes pH 7.4, 1 mM sodium pyruvate, 2.5 g/L glucose, and 20% fetal calf serum. After 24 hours, compounds were added to cell media to a final concentration of 1 μM, and the cells were grown in the presence of the compounds for 48 hours, in media containing 0.5% fetal calf serum. Viability was determined using a MTT cell proliferation assay (R and D Systems) and comparison to DMSO alone controls (100% viability). Compounds which result in reduced viability may act either by inhibiting cell proliferation or by inducing apoptosis (programmed cell death).
Selected compounds were evaluated against paired ovarian cancer cell lines at a range of concentrations to determine effective concentrations for growth inhibition.
MDA-MB-468 and MDA-MB-231 cells were seeded in 96-well cell culture plates (Greiner) at a density of 20,000 cells per well in RMPI media (GibcoBRL) with 10% fetal calf serum and 20 mM L-glutamine. After 24 hours, compounds were added to cell media to a final concentrations ranging from 10 nM to 100 μM, and the cells were grown in the presence of the compounds for 48 hours in RMPI media containing 0.5% fetal calf serum and 20 mM L-glutamine. Viability was determined using a MTT cell proliferation assay (R and D Systems) and comparison to DMSO alone controls (100% viability). Compounds which result in reduced viability may act either by inhibiting cell proliferation or by inducing apoptosis (programmed cell death). […] Selected compounds were evaluated against the paired breast cancer cell lines at a range of concentrations to determine effective concentrations for growth inhibition.
Table 3 summarizes the data for several compounds of this structural group, including the IC50 for inhibition of enzyme activity in vitro, cellular mIC50 and anti-proliferative activity against tumor cells altered in PI 3-K mediated signaling, and effects on cellular levels of phospho-Akt.

SKOV3 cells = experiment: MTT cell proliferation/viability assay, SKOV3 ovarian cancer cells; assay type: cell-based; settings: Homo sapiens
Method: as §1
Many of these also show similar selective effects on cell growth. Table 2 summarizes the results of two separate cell proliferation experiments for selected compounds of the present invention.

[3] = SK-OV-3, 48 hours, MTT, DMSO alone controls = 100% viability, Trial 1, read-out: Trial 1 SKOV-3 (viability)
[4] = SK-OV-3, 48 hours, MTT, DMSO alone controls = 100% viability, Trial 2, read-out: Trial 2 SKOV-3 (viability)
[5] = SK-OV-3, average of Trial 1 and Trial 2, 48 hours, read-out: Average SKOV3 (viability)

Compound	Approx. % decrease phospho-Akt relative to controls [1] [%]	Anti-proliferative effects on tumor cells altered in PI 3-K/PTEN [2]	IC50 [2] [µM]	viability at 1 µM (SKOV3 cells; [3]) [%]	viability at 1 µM (SKOV3 cells; [4]) [%]	viability at 1 µM (SKOV3 cells; [5]) [%]
CC1(C)CC(=O)C2=C(C1)Nc1c(c(C(C)(C)C)nn1C(C)(C)C)C2c1ccc(OCc2ccccc2)c(OCc2ccccc2)c1 (stereo not drawn) [Compound 963985]	50	Yes	1			
Cc1ccc(C2C3=C(CC(C)(C)CC3=O)Nc3c2c(C(C)(C)C)nn3-c2ccc(C)cc2)cc1 (stereo not drawn) [Compound 964028, 3-t-butyl-4-(4-methylphenyl)-7,7-dimethyl-1-(4-methylphenyl)-4,7,8,9-tetrahydro-1H-pyrazolo[3,4-b]quinolin-5(6H)-one]	40	Yes	10	100	99.1	99.5
COc1ccc(-n2nc(C(C)(C)C)c3c2NC2=C(C(=O)CC(C)(C)C2)C3c2ccccc2Cl)cc1 (stereo not drawn) [Compound 964076, 3-t-butyl-4-(2-chlorophenyl)-7,7-dimethyl-1-(4-methoxyphenyl)-4,7,8,9-tetrahydro-1H-pyrazolo[3,4-b]quinolin-5(6H)-one]	60	Yes	10	100	92.9	96.5
COc1ccc(OC)c(C2C3=C(CC(C)(C)CC3=O)Nc3c2c(C(C)(C)C)nn3-c2ccc(C)cc2C)c1 (stereo not drawn) [Compound 964232]	50	Yes	< 20	98	100	99
COc1ccccc1C1C2=C(CC(C)(C)CC2=O)Nc2c1c(C(C)(C)C)nn2-c1ccc(Cl)c(C)c1 (stereo not drawn) [Compound 964247]	30	Yes	< 20	100	100	100
CC1(C)CC(=O)C2=C(C1)Nc1c(c(C(C)(C)C)nn1-c1ccc(Cl)c(Cl)c1)C2c1cccc(OCc2ccccc2)c1 (stereo not drawn) [Compound 964260]	40	Yes	< 20	93	85	89
CC1(C)CC(=O)C2=C(C1)Nc1c(c(-c3ccccc3)nn1-c1cccc(F)c1)C2c1ccc(C(F)(F)F)cc1 (stereo not drawn) [Compound 964661]	40	Yes	< 20	99	77.1	88
